Experimental data reported in paper PMC5216056 (Nature Communications, 2017).
Entries after “also recorded” stand apart in the source; their conditions may differ.

Key:
[1] = system: C57BL6/J mice; experiment: Triad assay: antinociception; format: in vivo, mouse; conditions: for antinociception, cannabimimetic effect: 1-100 mg kg^−1 i.p., cumulative, mice
[2] = system: C57BL6/J mice; experiment: Triad assay: hypothermia; format: in vivo, mouse; conditions: for hypothermia, cannabimimetic effect: 1-100 mg kg^−1 i.p., cumulative, mice
[3] = molecular target: T1, AT2 (h) (Homo sapiens, UniProt P50052); experiment: CEREP panel; format: binding; conditions: for % inhibition AT2 (h): 10 µM
T1 construct: CEREP
T1 sequence (P50052 1-363): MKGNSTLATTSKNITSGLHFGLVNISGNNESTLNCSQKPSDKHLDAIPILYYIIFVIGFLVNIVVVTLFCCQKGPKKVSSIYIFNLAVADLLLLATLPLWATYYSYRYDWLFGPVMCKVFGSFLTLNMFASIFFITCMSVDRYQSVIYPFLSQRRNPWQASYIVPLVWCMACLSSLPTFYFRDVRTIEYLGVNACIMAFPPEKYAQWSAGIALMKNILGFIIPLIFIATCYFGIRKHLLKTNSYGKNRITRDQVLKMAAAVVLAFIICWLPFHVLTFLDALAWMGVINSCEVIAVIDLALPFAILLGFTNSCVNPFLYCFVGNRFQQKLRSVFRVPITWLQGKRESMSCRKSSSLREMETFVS

[4] = molecular target: T2, B2 (h) (Homo sapiens, UniProt P30411); experiment: CEREP panel; format: binding; conditions: for % inhibition B2 (h): 10 µM
T2 construct: CEREP
T2 sequence (P30411 1-391): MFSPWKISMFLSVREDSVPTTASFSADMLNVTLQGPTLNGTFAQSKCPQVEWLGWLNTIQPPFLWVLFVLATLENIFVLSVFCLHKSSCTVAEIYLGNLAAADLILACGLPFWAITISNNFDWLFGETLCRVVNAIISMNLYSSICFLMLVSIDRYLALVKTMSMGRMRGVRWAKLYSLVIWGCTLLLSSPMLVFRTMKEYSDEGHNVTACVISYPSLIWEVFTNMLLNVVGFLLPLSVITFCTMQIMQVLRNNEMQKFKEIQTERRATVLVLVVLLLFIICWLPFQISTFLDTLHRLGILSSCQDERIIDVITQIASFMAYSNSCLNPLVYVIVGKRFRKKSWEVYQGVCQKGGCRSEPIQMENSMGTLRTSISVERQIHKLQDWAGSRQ

[5] = molecular target: T3, MC4 (h) (Homo sapiens, UniProt P32245); experiment: CEREP panel; format: binding; conditions: for % inhibition MC4 (h): 10 µM
T3 construct: CEREP (contract assay)
T3 sequence (P32245 whole entry): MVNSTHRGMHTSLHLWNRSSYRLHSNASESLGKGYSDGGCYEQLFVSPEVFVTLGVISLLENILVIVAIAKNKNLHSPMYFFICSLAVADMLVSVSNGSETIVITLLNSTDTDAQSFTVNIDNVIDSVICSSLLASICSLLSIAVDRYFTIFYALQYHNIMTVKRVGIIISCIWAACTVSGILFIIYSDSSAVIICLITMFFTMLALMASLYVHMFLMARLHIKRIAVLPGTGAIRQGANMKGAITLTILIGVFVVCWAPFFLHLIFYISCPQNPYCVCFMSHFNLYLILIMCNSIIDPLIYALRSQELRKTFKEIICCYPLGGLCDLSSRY

[6] = molecular target: T4, NK2 (h) (Homo sapiens, UniProt P21452); experiment: CEREP panel; format: binding; conditions: for % inhibition NK2 (h): 10 µM
T4 construct: CEREP (contract assay)
T4 sequence (P21452 1-398): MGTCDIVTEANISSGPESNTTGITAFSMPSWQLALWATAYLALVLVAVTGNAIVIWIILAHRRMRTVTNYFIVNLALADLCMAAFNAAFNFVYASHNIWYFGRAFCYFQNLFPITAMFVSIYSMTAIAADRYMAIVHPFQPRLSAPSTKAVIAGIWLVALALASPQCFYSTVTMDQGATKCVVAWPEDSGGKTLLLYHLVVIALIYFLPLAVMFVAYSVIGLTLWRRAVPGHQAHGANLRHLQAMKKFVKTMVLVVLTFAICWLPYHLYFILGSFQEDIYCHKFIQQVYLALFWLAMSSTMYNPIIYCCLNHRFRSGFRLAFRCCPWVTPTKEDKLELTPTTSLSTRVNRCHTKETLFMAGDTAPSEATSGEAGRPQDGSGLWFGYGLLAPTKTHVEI

[7] = molecular target: T5, NK3 (h) (Homo sapiens, UniProt P29371); experiment: CEREP panel; format: binding; conditions: for % inhibition NK3 (h): 10 µM
T5 construct: CEREP (contract assay)
T5 sequence (P29371 1-465): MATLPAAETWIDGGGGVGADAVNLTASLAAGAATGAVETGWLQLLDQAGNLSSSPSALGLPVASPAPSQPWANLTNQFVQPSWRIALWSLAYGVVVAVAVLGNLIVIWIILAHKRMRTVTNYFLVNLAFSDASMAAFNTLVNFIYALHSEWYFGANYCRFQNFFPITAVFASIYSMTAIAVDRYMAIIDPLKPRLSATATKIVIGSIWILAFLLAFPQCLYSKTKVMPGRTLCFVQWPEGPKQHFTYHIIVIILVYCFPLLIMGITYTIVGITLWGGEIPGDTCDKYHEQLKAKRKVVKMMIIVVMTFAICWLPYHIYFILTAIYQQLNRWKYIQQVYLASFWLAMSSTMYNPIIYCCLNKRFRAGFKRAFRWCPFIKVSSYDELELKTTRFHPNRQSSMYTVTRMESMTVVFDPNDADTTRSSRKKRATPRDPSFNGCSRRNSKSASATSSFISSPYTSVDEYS

[8] = molecular target: T6, NOP (ORL1) (h) (Homo sapiens, UniProt P41146); experiment: CEREP panel; format: binding; conditions: for % inhibition NOP (ORL1) (h): 10 µM
T6 construct: CEREP (contract assay)
T6 sequence (P41146 whole entry): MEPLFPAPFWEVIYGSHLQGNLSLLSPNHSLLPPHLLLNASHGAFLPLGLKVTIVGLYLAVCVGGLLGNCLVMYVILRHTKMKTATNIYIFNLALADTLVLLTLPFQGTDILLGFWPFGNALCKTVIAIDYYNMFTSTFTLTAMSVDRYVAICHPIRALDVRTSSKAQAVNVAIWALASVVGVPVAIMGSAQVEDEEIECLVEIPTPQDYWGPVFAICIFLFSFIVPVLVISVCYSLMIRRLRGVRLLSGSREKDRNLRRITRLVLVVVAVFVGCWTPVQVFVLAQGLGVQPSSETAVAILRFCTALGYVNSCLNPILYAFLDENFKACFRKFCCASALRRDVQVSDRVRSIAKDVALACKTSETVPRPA

[9] = system: P2Y; experiment: CEREP panel; format: binding; conditions: 10 µM
[10] = molecular target: T7, PAC1 (PACAP) (h) (Homo sapiens, UniProt P41586); experiment: CEREP panel; format: binding; conditions: for % inhibition PAC1 (PACAP) (h): 10 µM
T7 construct: CEREP (contract assay)
T7 sequence (P41586 21-468): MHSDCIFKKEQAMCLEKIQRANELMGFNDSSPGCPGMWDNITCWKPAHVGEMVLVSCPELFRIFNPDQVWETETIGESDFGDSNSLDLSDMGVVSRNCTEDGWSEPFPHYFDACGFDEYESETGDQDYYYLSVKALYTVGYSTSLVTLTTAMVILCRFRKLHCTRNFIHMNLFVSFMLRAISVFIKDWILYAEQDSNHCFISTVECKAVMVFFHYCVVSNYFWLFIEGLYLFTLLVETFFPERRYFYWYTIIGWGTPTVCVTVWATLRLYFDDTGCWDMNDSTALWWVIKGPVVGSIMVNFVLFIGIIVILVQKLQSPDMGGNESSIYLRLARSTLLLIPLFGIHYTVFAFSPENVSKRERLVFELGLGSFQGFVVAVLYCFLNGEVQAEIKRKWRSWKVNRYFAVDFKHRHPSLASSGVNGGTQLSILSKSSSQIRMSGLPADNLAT

[11] = system: PDGF; experiment: CEREP panel; format: binding; conditions: 10 µM
[12] = system: sigma (non-selective) (h); format: binding, human; conditions: 10 µM
[13] = molecular target: mCB2R (Mus musculus, UniProt P47936); experiment: [35S]GTPγS assay; format: biochemical; design: from tissue; host or cells: spleen of male C57BL/6J mice; conditions: for Emax ± SEM GTPγS mCB2R: normalized to 10 µM CP55940; for Emax: read-out: Emax ± SEM GTPγS mCB2R
mCB2R, sequence (P47936 whole entry): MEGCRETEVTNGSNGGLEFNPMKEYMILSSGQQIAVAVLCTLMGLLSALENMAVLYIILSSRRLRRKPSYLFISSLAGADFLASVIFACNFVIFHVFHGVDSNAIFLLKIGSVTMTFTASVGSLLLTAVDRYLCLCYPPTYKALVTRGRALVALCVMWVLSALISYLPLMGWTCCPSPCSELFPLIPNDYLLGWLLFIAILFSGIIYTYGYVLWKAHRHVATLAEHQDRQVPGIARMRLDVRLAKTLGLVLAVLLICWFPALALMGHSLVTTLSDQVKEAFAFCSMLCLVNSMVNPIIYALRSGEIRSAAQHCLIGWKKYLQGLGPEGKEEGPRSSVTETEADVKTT

[14] = molecular target: T8, sst4 (h) (Homo sapiens, UniProt P31391); experiment: CEREP panel; format: binding; conditions: for % inhibition sst4 (h): 10 µM
T8 construct: CEREP (contract assay)
T8 sequence (P31391 whole entry): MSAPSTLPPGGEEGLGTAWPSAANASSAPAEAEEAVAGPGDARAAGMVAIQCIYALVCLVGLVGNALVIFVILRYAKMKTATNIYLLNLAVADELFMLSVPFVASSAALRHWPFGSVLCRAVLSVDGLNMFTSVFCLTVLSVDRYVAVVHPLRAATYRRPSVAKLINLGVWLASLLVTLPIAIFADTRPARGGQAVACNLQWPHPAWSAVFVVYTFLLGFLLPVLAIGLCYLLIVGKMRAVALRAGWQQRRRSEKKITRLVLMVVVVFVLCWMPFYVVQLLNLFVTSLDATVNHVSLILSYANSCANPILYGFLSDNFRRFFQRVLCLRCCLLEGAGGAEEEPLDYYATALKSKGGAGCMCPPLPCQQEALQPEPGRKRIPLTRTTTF

[15] = in vitro; conditions: male, C57BL/6J, mouse, microsomes, pH 7.4
[16] = molecular target: human P-gp (Homo sapiens, UniProt P08183); conditions: efflux ratio
human P-gp, sequence (P08183 whole entry): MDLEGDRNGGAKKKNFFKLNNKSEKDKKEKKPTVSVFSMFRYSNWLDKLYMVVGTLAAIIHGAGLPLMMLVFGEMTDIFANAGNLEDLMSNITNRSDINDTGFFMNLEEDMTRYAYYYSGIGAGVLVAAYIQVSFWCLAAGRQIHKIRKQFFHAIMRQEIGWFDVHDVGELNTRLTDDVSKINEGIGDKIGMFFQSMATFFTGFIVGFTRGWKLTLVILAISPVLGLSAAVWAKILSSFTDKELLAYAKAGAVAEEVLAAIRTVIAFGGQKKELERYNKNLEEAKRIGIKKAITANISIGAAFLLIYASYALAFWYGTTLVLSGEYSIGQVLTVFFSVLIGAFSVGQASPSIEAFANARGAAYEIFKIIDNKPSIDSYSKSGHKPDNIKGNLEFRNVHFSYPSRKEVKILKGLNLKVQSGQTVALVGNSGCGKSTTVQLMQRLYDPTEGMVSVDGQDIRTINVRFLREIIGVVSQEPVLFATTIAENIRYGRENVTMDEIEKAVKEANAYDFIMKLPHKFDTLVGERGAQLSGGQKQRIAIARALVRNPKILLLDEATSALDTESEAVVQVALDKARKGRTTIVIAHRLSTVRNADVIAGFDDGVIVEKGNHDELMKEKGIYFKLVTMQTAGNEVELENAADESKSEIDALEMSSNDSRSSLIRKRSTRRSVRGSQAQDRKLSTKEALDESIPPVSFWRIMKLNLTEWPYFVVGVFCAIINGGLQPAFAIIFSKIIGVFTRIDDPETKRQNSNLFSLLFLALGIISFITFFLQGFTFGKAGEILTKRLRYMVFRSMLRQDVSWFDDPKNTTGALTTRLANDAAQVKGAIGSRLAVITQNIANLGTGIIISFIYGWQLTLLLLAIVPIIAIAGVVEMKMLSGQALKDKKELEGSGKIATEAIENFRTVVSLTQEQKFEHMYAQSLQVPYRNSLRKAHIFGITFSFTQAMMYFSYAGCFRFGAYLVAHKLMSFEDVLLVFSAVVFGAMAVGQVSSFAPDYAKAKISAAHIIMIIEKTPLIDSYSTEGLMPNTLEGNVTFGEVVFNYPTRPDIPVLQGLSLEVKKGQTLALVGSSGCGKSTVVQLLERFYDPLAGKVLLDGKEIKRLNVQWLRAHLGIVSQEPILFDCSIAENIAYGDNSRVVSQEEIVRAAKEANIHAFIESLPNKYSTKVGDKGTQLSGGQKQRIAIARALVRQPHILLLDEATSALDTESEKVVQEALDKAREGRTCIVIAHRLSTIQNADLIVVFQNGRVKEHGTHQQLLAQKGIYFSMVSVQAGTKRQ

[17] = pretreatment (SR141716A 3 mg kg^−1, HU910 30 mg kg^−1) before HU210 1.7 mg kg^−1

For CCCC(C)(C)c1ccc2c(c1)OC(C)(C)[C@@H]1CC=C(C)C[C@@H]21 [JWH133], the “antinociception, cannabimimetic effect” value [1] was “did not produce detectable; also recorded: lacked appreciable pharmacological effects”, the “hypothermia, cannabimimetic effect” value [2] was “did not produce detectable; also recorded: lacked appreciable pharmacological effects” and the “% inhibition AT2 (h)” value [3] was 0%. The “% inhibition B2 (h)” value [4] was -2%, the “% inhibition MC4 (h)” value [5] was -10% and the “% inhibition NK2 (h)” value [6] was 36%. The “% inhibition NK3 (h)” value [7] was -1%, the “% inhibition NOP (ORL1) (h)” value [8] was -5% and the “% inhibition P2Y” value [9] was 3%. For the same compound, the “% inhibition PAC1 (PACAP) (h)” value [10] was 12%, the “% inhibition PDGF” value [11] was -12% and the “% inhibition sigma (non-selective) (h)” value [12] was 2%. The “pEC50 ± SEM GTPγS mCB2R” value [13] was 7.03 ± 0.14 and the “Emax ± SEM GTPγS mCB2R” value [13] was 103 ± 7%.
Work on CCCCCCC(C)(C)c1ccc([C@@H]2C[C@H](O)CC[C@H]2CCCO)c(O)c1 [CP55940] yielded an inhibition at 10 µM [14] of 63%, a microsomal CLint [15] of 172 µL/min/mg and an EC50 [13] of 16.2 nM. For the same compound, the Emax [13] was 102 ± 1%.
In the case of Cc1c(C(=O)NN2CCCCC2)nn(-c2ccc(Cl)cc2Cl)c1-c1ccc(Cl)cc1 [SR141716A], the “antagonism of HU210-induced antinociception” value ([1]; mouse, in vivo) is reported as “attenuated; also recorded: significantly antagonized”, the “antagonism of HU210-induced hypothermia” value ([2]; mouse, in vivo) is reported as “attenuated; also recorded: significantly antagonized” and the microsomal CLint [15] is reported as 109 µL/min/mg.
With COc1ccc(C(=O)c2c(C)n(CCN3CCOCC3)c3cc(I)ccc23)cc1 [AM630] the “P-gp (ER) human” value [16] was 1.3.
For Cc1ccc2c(c1)Cc1c(C(=O)NN3CCCCC3)nn(-c3ccc(Cl)cc3Cl)c1-2 [Gp-1a], the “% inhibition sigma (non-selective) (h)” value [12] was 51% and the “P-gp (ER) human” value [16] was 1.0.
For CCCCCCC(C)(C)c1cc(OC)c(C2=C[C@H]3CC[C@]2(CO)C3(C)C)c(OC)c1 [HU910], the “antinociception, cannabimimetic effect” value [1] was “did not produce detectable; also recorded: lacked appreciable pharmacological effects”, the “antagonism of HU210-induced antinociception” value [1, 17] was “did not significantly reduce” and the “hypothermia, cannabimimetic effect” value [2] was “did not produce detectable; also recorded: lacked appreciable pharmacological effects”. For the same compound, the “antagonism of HU210-induced hypothermia” value [2, 17] was “did not significantly reduce”, the “% inhibition AT2 (h)” value [3] was 13% and the “% inhibition B2 (h)” value [4] was -39%. The “% inhibition MC4 (h)” value [5] was 13%, the “% inhibition NK2 (h)” value [6] was 31% and the “% inhibition NK3 (h)” value [7] was 24%. The “% inhibition NOP (ORL1) (h)” value [8] was 4%, the “% inhibition P2Y” value [9] was -7% and the “% inhibition PAC1 (PACAP) (h)” value [10] was 0%. For the same compound, the “% inhibition PDGF” value [11] was 10%, the “P-gp (ER) human” value [16] was 2.2 and the “pEC50 ± SEM GTPγS mCB2R” value [13] was 7.27 ± 0.08. For the same compound, the “Emax ± SEM GTPγS mCB2R” value [13] was 78 ± 4%.
In the case of CCCCCCC(C)(C)c1cc(OC)c([C@@H]2C=C(CO)[C@@H]3C[C@H]2C3(C)C)c(OC)c1 [HU308], the “antinociception, cannabimimetic effect” value [1] is reported as “did not produce detectable; also recorded: lacked appreciable pharmacological effects”, the “hypothermia, cannabimimetic effect” value [2] is reported as “did not produce detectable; also recorded: lacked appreciable pharmacological effects” and the inhibition at 10 µM ([3]; read-out: % inhibition AT2 (h)) is reported as 42%. The inhibition at 10 µM ([4]; read-out: % inhibition B2 (h)) was -21%, the inhibition at 10 µM ([5]; read-out: % inhibition MC4 (h)) was 1% and the inhibition at 10 µM ([6]; read-out: % inhibition NK2 (h)) was 68%. The inhibition at 10 µM ([7]; read-out: % inhibition NK3 (h)) was 13%, the inhibition at 10 µM ([8]; read-out: % inhibition NOP (ORL1) (h)) was -5% and the “% inhibition P2Y” value [9] was 1%. The inhibition at 10 µM ([10]; read-out: % inhibition PAC1 (PACAP) (h)) was -3%, the “% inhibition PDGF” value [11] was -28% and the EC50 [13] was 148 nM. It also gave an Emax [13] of 96 ± 3%.
In the case of Cc1c(C(=O)c2cccc3ccccc23)c2cccc3c2n1[C@H](CN1CCOCC1)CO3 [WIN55212-2], the “% inhibition sst4 (h)” value [14] is reported as 64%.
With CN1CCCC[C@H]1Cn1cc(C(=O)c2cc([N+](=O)[O-])ccc2I)c2ccccc21 [(S)-AM1241] the “% inhibition sigma (non-selective) (h)” value [12] was 101%, the “% inhibition sst4 (h)” value [14] was 63% and the “P-gp (ER) human” value [16] was 2.7.
For CCCCC/C=C\C/C=C\C/C=C\C/C=C\CCCC(=O)OC(CO)CO [2-AG, 2-arachidonoyl glycerol], the microsomal CLint [15] was 12 µL/min/mg.
In the case of Cc1c(C(=O)NN2CCCCC2)nn(-c2ccc(Cl)cc2Cl)c1-c1ccc(I)cc1 [AM251], the “% inhibition sst4 (h)” value [14] is reported as 51%.
In the case of CCCCC/C=C\C/C=C\C/C=C\C/C=C\CCCC(=O)NCCO [Anandamide, N-arachidonoylethanolamine], the microsomal CLint [15] is reported as 222 µL/min/mg.
